In patent publication US20250171415A1, “SALT OF SUBSTITUTED AMINO SIX-MEMBERED NITRIC HETEROCYCLIC COMPOUND, CRYSTAL FORM THEREOF, METHOD FOR PREPARING SAME, AND USE THEREOF” (SHANGHAI RUNSHI MEDICAL TECHNOLOGY CO., LTD., priority 2022, published 2025):
Where a name gives a salt, the structure may show the parent alone.

Columns and labels:
[1] = test system: human lung cancer NCI-H1581 nude mouse subcutaneous xenograft tumor; assay: Efficacy in human lung cancer NCI-H1581 nude mouse subcutaneous xenograft tumor model; assay type: in vivo
Text: The human lung cancer NCI-H1581 cell strain (preserved by Shanghai Institute of Materia Medica, Chinese Academy of Sciences) was inoculated subcutaneously in the right axilla of nude mice with an inoculation amount of the cells of 5×10^6 cells/mouse. The formed xenograft tumor was directly inoculated for use.
The tumor tissue in the vigorous growth phase was cut into about 1.5 mm^3 and was inoculated subcutaneously in the right axilla of the nude mouse under sterile conditions. The diameter of the subcutaneous xenograft tumor in the nude mouse was measured using a vernier caliper, and the animals were randomly grouped after the tumors grew to an average volume of about 150-160 mm^3. Animals in the Example 3 sample group were orally administered at 10 mg/kg, 5 mg/kg, and 2.5 mg/kg once a day for two consecutive weeks. Animals in the […] (AZD4547) were orally administered at 12.5 mg/kg once a day for two consecutive weeks. Throughout the experiment, the diameter of the xenograft tumor was measured 2 times a week, and the body weight of the mice was measured at the same time. The tumor volume (TV) was calculated as follows: TV=½×a×b^2, wherein a and b represent the length and width, respectively. The relative tumor volume (RTV) was calculated from the measurement results using the following formula: RTV=Vt/V0, wherein V0 is the tumor volume measured at the time of grouping and administration (d0), and Vt is the tumor volume at each measurement. The evaluation index of the anti-tumor activity was the relative tumor proliferation rate T/C (%), which was calculated as follows: T/C (%)=(TRTV/CRTV)×100%, wherein TRTV represents RTV of the treatment group; CRTV represents RTV of the negative control group.

[2] = Solubility experiments of compound of formula (I) and salts thereof; assay type: physicochemical; conditions: 25° C.
[3] = Solid grinding stability: solid grinding, XRPD; assay type: physicochemical; conditions: 20 mg ground in a mortar for 2 min and 5 min
Protocol: 20 mg of the sample in Example 3 was weighed out, added to a mortar, and ground for 2 min and 5 min, respectively. Then, the sample was characterized by XRPD.

[4] = Solid stability study of dihydrochloride salt crystal form I; assay type: physicochemical
Text: (in a covered sample flask) for 7 days, and for physical stability at room temperature/92.5% RH (uncovered) for 10 days.

[5] = Solid grinding stability: dropwise addition of solvents and grinding; assay type: physicochemical; conditions: ground
[6] = Water sorption and desorption experiments (DVS hygroscopicity); assay type: physicochemical; conditions: 40%-80% relative humidity, 25° C.
[7] = Na2HPO4-citric acid buffer (pH 4.6)
[8] = 40° C./75% RH (uncovered) for 7 days
[9] = 60° C. (covered sample flask) for 7 days

## COc1cc(CCc2cc(NC(=O)c3ccc(N4C[C@@H](C)N[C@@H](C)C4)cc3)n[nH]2)cc(OC)c1 [AZD4547, reference compound]
[1]; 12.5 mg/kg orally once a day for two consecutive weeks
  T/C (relative tumor proliferation rate): 20.01%

## CNC(=O)c1cccc2cc(Oc3ccnc(NC(=O)c4ccc(N5C[C@@H](C)N[C@@H](C)C5)cc4)c3)ccc12 [Compound of formula (I)]
[2]; [7]
  Solubility: 45 µg/mL
[2]; deionized water
  Solubility: 8 µg/mL

## CNC(=O)c1cccc2cc(Oc3ccnc(NC(=O)c4ccc(N5C[C@@H](C)N[C@@H](C)C5)cc4)c3)ccc12 [Dihydrochloride salt crystal form I]
[3]
  Crystal form of the ground sample (XRPD): not changed
[4]; [8]
  Purity: 99.86
  XRPD (crystal form): Not changed
[4]; [9]
  Purity: 99.85
  XRPD (crystal form): Not changed
[4]; T0
  Purity: 99.85
[4]; room temperature/92.5% RH (uncovered) for 10 days
  XRPD (crystal form): Not changed
[5]; Acetone added dropwise
  Solvent grinding result (crystal form): Crystal form I
[5]; Acetonitrile added dropwise
  Solvent grinding result (crystal form): Crystal form I
[5]; Butanone added dropwise
  Solvent grinding result (crystal form): Crystal form I
[5]; Ethanol added dropwise
  Solvent grinding result (crystal form): Crystal form I
[5]; Ethyl acetate added dropwise
  Solvent grinding result (crystal form): Crystal form I
[5]; Isopropanol added dropwise
  Solvent grinding result (crystal form): Crystal form I
[5]; Methanol added dropwise
  Solvent grinding result (crystal form): Crystal form I
[6]
  Hygroscopicity (%): 0.65%
[1]; 2.5 mg/kg orally once a day for two consecutive weeks
  T/C (relative tumor proliferation rate): 49.06%
[1]; 5 mg/kg orally once a day for two consecutive weeks
  T/C (relative tumor proliferation rate): 33.22%
[1]; 10 mg/kg orally once a day for two consecutive weeks
  T/C (relative tumor proliferation rate): 17.17%
[1]; 10 mg/kg, 5 mg/kg and 2.5 mg/kg orally once a day for two consecutive weeks
  Effect on the growth of xenograft tumors: significant inhibitory effect
[1]; 10, 5 and 2.5 mg/kg orally once a day for two weeks, nude mice
  Animal condition and mortality during the experiment: no mice died

## C[C@@H]1COC(Nc2ccc3ncnc(Nc4ccc(OCc5nccs5)c(Cl)c4)c3c2)=N1.O=C(O)/C=C\C(=O)O [Maleate salt]
[2]; [7]
  Solubility: 30 µg/mL
[2]; deionized water
  Solubility: 2000 µg/mL
[6]
  Hygroscopicity (%): 0.81%
